Measured values as given in ChEMBL document CHEMBL1201862, “PubChem BioAssay data set” (2004).
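Tested at 5 concentrations; 48 h exposure; 96-well plates; endpoints linearly interpolated, else capped at highest concentration. Here, GI50 denotes the concentration required for 50% inhibition of growth.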 Calls of active or inactive are those of the source. Cut-off read from the data, not from the text of the source: active = GI50 up to about 1.1 µM and inactive = higher.

Assays:
Test in all cases: NCI tumour cell line growth inhibition, 48 h
786-0 = tested on: 786-0
A498 = tested on: A498
A549 = tested on: A549
ACHN = tested on: ACHN
BT-549 = tested on: BT-549
CAKI-1 = tested on: CAKI-1
CCRF-CEM = tested on: CCRF-CEM
COLO 205 = tested on: COLO 205
DU-145 = tested on: DU-145
EKVX = tested on: EKVX
HCC 2998 = tested on: HCC 2998
HCT-116 = tested on: HCT-116
HCT-15 = tested on: HCT-15
HOP-62 = tested on: HOP-62
HT-29 = tested on: HT-29
Hs-578T = tested on: Hs-578T
KM12 = tested on: KM12
M14 = tested on: M14
MCF7 = tested on: MCF7
MDA-MB-231 = tested on: MDA-MB-231
MDA-MB-435 = tested on: MDA-MB-435
MDA-N = tested on: MDA-N
MOLT-4 = tested on: MOLT-4
Malme-3M = tested on: Malme-3M
NCI-H226 = tested on: NCI-H226
NCI-H23 = tested on: NCI-H23
NCI-H460 = tested on: NCI-H460
NCI/ADR-RES = tested on: NCI/ADR-RES
OVCAR-3 = tested on: OVCAR-3
OVCAR-4 = tested on: OVCAR-4
OVCAR-5 = tested on: OVCAR-5
OVCAR-8 = tested on: OVCAR-8
PC-3 = tested on: PC-3
RPMI-8226 = tested on: RPMI-8226
SF-268 = tested on: SF-268
SF-295 = tested on: SF-295
SF-539 = tested on: SF-539
SK-MEL-28 = tested on: SK-MEL-28
SK-MEL-2 = tested on: SK-MEL-2
SK-OV-3 = tested on: SK-OV-3
SN12C = tested on: SN12C
SNB-19 = tested on: SNB-19
SNB-75 = tested on: SNB-75
SW-620 = tested on: SW-620
T47D = tested on: T47D
U-251 = tested on: U-251
UACC-257 = tested on: UACC-257
UACC-62 = tested on: UACC-62
UO-31 = tested on: UO-31
HL-60 = tested on: HL-60
IGROV-1 = tested on: IGROV-1
K562 = tested on: K562
LOX IMVI = tested on: LOX IMVI
NCI-H522 = tested on: NCI-H522
RXF 393 = tested on: RXF 393
SK-MEL-5 = tested on: SK-MEL-5
TK-10 = tested on: TK-10

Measured: GI50

Cc1ccc(N/C(SCc2ccccc2)=C(\C(Cl)=C(Cl)Cl)[N+](=O)[O-])c(C)c1
17.7 µM: HCT-15
inactive: 786-0 23.6 µM | A498 22.2 µM | A549 27.1 µM | ACHN 43 µM | BT-549 19.2 µM | CAKI-1 18.6 µM | CCRF-CEM 31 µM | COLO 205 17.8 µM | DU-145 6.31 µM | EKVX 33.4 µM | HCC 2998 45.6 µM | HCT-116 16.8 µM | HOP-62 8.13 µM | HT-29 29.8 µM | Hs-578T 39.1 µM | KM12 17.2 µM | M14 16.9 µM | MCF7 35.3 µM | MDA-MB-231 14.6 µM | MDA-MB-435 7.21 µM | MDA-N 22.2 µM | MOLT-4 > 100 µM | Malme-3M 21.4 µM | NCI-H226 45.2 µM | NCI-H23 19.5 µM | NCI-H460 41.7 µM | NCI/ADR-RES 21.2 µM | OVCAR-3 8.26 µM | OVCAR-4 10.8 µM | OVCAR-5 19.6 µM | OVCAR-8 18.5 µM | PC-3 37.2 µM | RPMI-8226 21.1 µM | SF-268 14.3 µM | SF-295 23.7 µM | SF-539 19.9 µM | SK-MEL-28 23.8 µM | SK-MEL-2 39.6 µM | SK-OV-3 39.8 µM | SN12C 20.4 µM | SNB-19 30.4 µM | SNB-75 29.2 µM | SW-620 15.6 µM | T47D 18.1 µM | U-251 15.6 µM | UACC-257 43.9 µM | UACC-62 23.6 µM | UO-31 20 µM

CCOC(=O)C1(C/C=C/CBr)Cc2ccccc2C1=O (stereo not given)
2.24 µM: HCT-15
inactive: 786-0 3.85 µM | A498 17.9 µM | A549 10.5 µM | ACHN 2.43 µM | BT-549 2.95 µM | CAKI-1 2.42 µM | COLO 205 3.21 µM | DU-145 3.38 µM | EKVX 14.6 µM | HCC 2998 9.02 µM | HCT-116 3.71 µM | HL-60 3.21 µM | HOP-62 4.03 µM | HT-29 2.79 µM | Hs-578T 5.53 µM | IGROV-1 2.7 µM | K562 1.87 µM | KM12 3.07 µM | LOX IMVI 1.6 µM | M14 2.83 µM | MCF7 2.48 µM | MDA-MB-231 4.7 µM | MDA-MB-435 1.72 µM | MDA-N 2.2 µM | MOLT-4 2.49 µM | Malme-3M 2.76 µM | NCI-H23 2.02 µM | NCI-H460 1.75 µM | NCI-H522 1.63 µM | NCI/ADR-RES 1.98 µM | OVCAR-3 2.17 µM | OVCAR-4 2.03 µM | OVCAR-5 3.02 µM | OVCAR-8 2.39 µM | PC-3 4.13 µM | RPMI-8226 2.02 µM | RXF 393 1.55 µM | SF-268 2.91 µM | SF-295 8.57 µM | SF-539 1.81 µM | SK-MEL-28 6.93 µM | SK-MEL-2 2.25 µM | SK-MEL-5 2.67 µM | SK-OV-3 8.69 µM | SN12C 1.99 µM | SNB-19 5.45 µM | SNB-75 5.86 µM | SW-620 2.58 µM | T47D 1.98 µM | TK-10 2.77 µM | U-251 3.58 µM | UACC-257 8.17 µM | UACC-62 2.14 µM | UO-31 1.96 µM
active: CCRF-CEM 0.796 µM
